{"source": "paper PMC6155027", "about": "“Mechanistic insights into the host-microbe interaction and pathogen exclusion mediated by the Mucus-binding protein of Lactobacillus plantarum” (Scientific Reports, 2018)", "biological_target": "T1, Mubs5s6 (Lactiplantibacillus plantarum, UniProt F9UP14)", "T1 construct": "gene lp_1643; last two (fifth and sixth) C-terminal Mub domains with spacers of the about 2200-residue Lp_1643 protein; 366 residues, about 40 kDa; expressed in E. coli as MBP fusion (82 kDa), MBP tag removable with Factor Xa", "T1 sequence (F9UP14 entry or part of it)": "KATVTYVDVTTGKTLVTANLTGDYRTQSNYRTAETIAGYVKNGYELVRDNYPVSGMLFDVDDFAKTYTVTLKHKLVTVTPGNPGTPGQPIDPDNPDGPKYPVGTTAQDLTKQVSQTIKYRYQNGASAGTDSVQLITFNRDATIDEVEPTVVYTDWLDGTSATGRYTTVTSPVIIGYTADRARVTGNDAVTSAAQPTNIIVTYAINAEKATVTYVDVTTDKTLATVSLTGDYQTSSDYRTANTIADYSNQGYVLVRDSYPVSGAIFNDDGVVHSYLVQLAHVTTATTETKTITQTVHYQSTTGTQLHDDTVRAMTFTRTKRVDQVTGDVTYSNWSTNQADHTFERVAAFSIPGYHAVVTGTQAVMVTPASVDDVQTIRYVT", "experiment": "biochemical assay (details in supplement)", "format": "binding", "settings": "site predicted by COACH (Asn42, Gly43, Asn224, Thr227, Asn228, Gln229); assay conditions only in supplement", "data": [{"smiles": "OC[C@H]1OC(O)[C@H](O)[C@@H](O)[C@@H]1O", "note": "(stereo partly shown) [glucose]", "values": [{"measurement": "biochemical assay (details in supplement)", "result": "We could also confirm the binding of calcium and glucose by Atomic Absorption Spectroscopy and biochemical assay"}]}]}
